# Assay results reported in PubChem BioAssay AID2060605 (Molecular Pharmacology Branch, DTP, NCI, 2025).
# Where “and” joins values, the source holds several entries; their conditions need not be identical. Equal entries are not always repeated.
# System: 947758-054-R-J2-PDC spheroid growth, percent test/control
# Experiment: Anticancer human tumor 947758-054-R-J2-PDC patient-derived colon adenocarcinoma cell line growth inhibition [CLK]
# Details: spheroids with HUVEC and MSC; for viability, T/C: stronger effect = lower value
# From the text: A high-throughput screen of multi-cell type tumor spheroids was designed to identify active combinations of […] and targeted small molecules. Complex spheroids include a stromal component modeled by human endothelial cells (HUVEC) and fibroblasts modeled by human mesenchymal stem cells (MSCs). The concentration ranges selected for each drug and investigational agent were based upon clinically achievable concentrations if the clinical Cmax of the agent was known.
# Compounds. The drugs and investigational agents: cirtuvivint (SM08502; NSC835563), CC-671 (NSC850746), vemurafenib (NSC761431), tapotoclax (NSC804041), sotorasib (NSC818433), adagrasib (NSC831453), MRTX-1133 (NSC836407), BAY2416964 (NSC825713), copanlisib (NSC816437), inavolisib (NSC800729), abemaciclib (NSC768073), osimertinib (NSC779217), entinostat (NSC756642), eltanexor (KPT-8602, NSC794443), venetoclax (NSC766270), ceralasertib (NSC777638), bortezomib (NSC756655), olaparib (NSC753686), talazoparib (NSC767125), alisertib (NSC759677), peposertib (NSC802822), gemcitabine (NSC613327), 5-fluorouracil (NSC19893), SN-38 (NSC673596), oxaliplatin (NSC266046), paclitaxel (NSC125973), and doxorubicin (NSC123127), were obtained from the National Cancer Institute (NCI) Developmental Therapeutics Program Chemical Repository. The FDA-approved anticancer drug set is available from the Developmental Therapeutics Program at https://dtp.cancer.gov/organization/dscb/obtaining/available plates.htm. […] The stock solutions were prepared in dimethyl sulfoxide (DMSO, Sigma-Aldrich, St. Louis, MO, cat. D2650), except for the platinum complexes which were prepared in saline (Quality Biological, Gaithersburg, MD, cat. 114-055-101), at 800-fold the tested concentration and stored at -70 degrees C prior to their use. All drugs and investigational agents were tested over a range starting from a high concentration at or near the clinical Cmax and decreasing in half-log increments. If the clinical Cmax for an agent had not been determined, the highest concentration tested was 10 microM.
# Cell Culture. All cells were maintained in an incubator at 37 degrees C and 5% CO2 with 95% humidity. The PDC lines were cultured according to standard operating procedures established by the NCI PDMR. Briefly, all PDCs were thawed and cultured in Matrigel-coated flasks prepared with a working solution of 1X Ham's F-12 nutrient mix, without supplementation (Invitrogen, Waltham, MA, cat. 11765054), 100 U/mL penicillin-streptomycin (Invitrogen, cat. 15140122), and 2.5% Matrigel (Corning Inc., Corning, NY, cat. 354248) for the first three passages. The 947758-054-R-J2-PDC line was cultured in 6B/Colon 1A media, which includes advanced DMEM/F-12 (Thermo Fisher Scientific, cat. 12634028), 10 mM HEPES (Thermo Fisher Scientific, cat. 15630080), 1X GlutaMAX supplement (Thermo Fisher Scientific, cat. 35050061), 0.1 mg/mL primocin (InvivoGen, cat. ant-pm-2), 10% defined fetal bovine serum, heat inactivated (HyClone Laboratories Inc., cat. SH30070.03HI), 1.25 mM N-Acetyl-L-cysteine (Sigma-Aldrich, cat. A9165), 10 mM nicotinamide (Sigma-Aldrich, cat. N0636), 1X B-27 supplement (Thermo Fisher Scientific, cat. 17504044), 1X N-2 supplement (Thermo Fisher Scientific, cat. 17502048), and 10 microM Y-27632 dihydrochloride (Tocris Bioscience, cat. 1254). The 876862-298-R-J1-PDC was cultured in 6E media, which includes all 6B/Colon 1A media components plus 50% L-WRN conditioned media (ATCC, cat. CRL-3276), 50 ng/mL recombinant human EGF recombinant protein (hEGF; Thermo Fisher Scientific, cat. PHG0311), 10 ng/mL recombinant human fibroblast growth factor 10 (hGFG-10; PeproTech, cat. 100-26), 1 ng/mL recombinant human fibroblast growth factor 2 (hFGF-2; PeproTech, cat. 100-18B), and 1 µM prostaglandin E2 (PGE2; Tocris, cat. 2296). The 227483-062-R1-J1-PDC line was cultured in Panc media, containing all 6E components except hFGF-2, with the addition of 500 nM SB-431542 (Selleckchem, cat. S1067) and 10 nM gastrin (Tocris, cat. 3006). […]
# [1] = curve of first compound, second compound 0.0316 µM
# [2] = curve of first compound, second compound 0.1 µM
# [3] = curve of first compound, second compound 0.316 µM
# [4] = curve of first compound, second compound 1 µM
# [5] = curve of first compound, second compound 3.16 µM
# [6] = curve of first compound, second compound 10 µM
# [7] = second compound 0.0316 µM, first compound 0.0316 µM
# [8] = second compound 0.0316 µM, first compound 0.1 µM
# [9] = second compound 0.0316 µM, first compound 0.316 µM
# [10] = second compound 0.0316 µM, first compound 1 µM
# [11] = second compound 0.0316 µM, first compound 3.16 µM
# [12] = second compound 0.0316 µM, first compound 10 µM
# [13] = second compound 0.1 µM, first compound 0.0316 µM
# [14] = second compound 0.1 µM, first compound 0.1 µM
# [15] = second compound 0.1 µM, first compound 0.316 µM
# [16] = second compound 0.1 µM, first compound 1 µM
# [17] = second compound 0.1 µM, first compound 3.16 µM
# [18] = second compound 0.1 µM, first compound 10 µM
# [19] = second compound 0.316 µM, first compound 0.0316 µM
# [20] = second compound 0.316 µM, first compound 0.1 µM
# [21] = second compound 0.316 µM, first compound 0.316 µM
# [22] = second compound 0.316 µM, first compound 1 µM
# [23] = second compound 0.316 µM, first compound 3.16 µM
# [24] = second compound 0.316 µM, first compound 10 µM
# [25] = second compound 1 µM, first compound 0.0316 µM
# [26] = second compound 1 µM, first compound 0.1 µM
# [27] = second compound 1 µM, first compound 0.316 µM
# [28] = second compound 1 µM, first compound 1 µM
# [29] = second compound 1 µM, first compound 3.16 µM
# [30] = second compound 1 µM, first compound 10 µM
# [31] = second compound 3.16 µM, first compound 0.0316 µM
# [32] = second compound 3.16 µM, first compound 0.1 µM
# [33] = second compound 3.16 µM, first compound 0.316 µM
# [34] = second compound 3.16 µM, first compound 1 µM
# [35] = second compound 3.16 µM, first compound 3.16 µM
# [36] = second compound 3.16 µM, first compound 10 µM
# [37] = second compound 10 µM, first compound 0.0316 µM
# [38] = second compound 10 µM, first compound 0.1 µM
# [39] = second compound 10 µM, first compound 0.316 µM
# [40] = second compound 10 µM, first compound 1 µM
# [41] = second compound 10 µM, first compound 3.16 µM
# [42] = second compound 10 µM, first compound 10 µM
# 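Note: spheroids exposed to compounds for one week before readout.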
# 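Throughout, for viability, T/C: 100% = DMSO vehicle control wells.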
structure (smiles),measurement,setting,value
CC(C)CC(NC(=O)C(Cc1ccccc1)NC(=O)c1cnccn1)B(O)O (stereo not drawn),"viability, T/C",compound 0.000949 µM,89.3% and 86%
same,"viability, T/C",compound 0.003 µM,2.43% and 0.8%
same,"viability, T/C",compound 0.00949 µM,0.17% and 0.23%
same,"viability, T/C",compound 0.03 µM,0.24% and 0.3%
same,"viability, T/C",compound 0.0949 µM,0.19% and 0.27%
same,"viability, T/C",compound 0.3 µM,0.24% and 0.28%
same,IC50,curve of compound,1.6 nM and 1.54 nM
CC(Nc1ccc2c(c1)OCCn1cc(N3C(=O)OCC3C(F)F)nc1-2)C(N)=O (stereo not drawn) + CN1CCN(c2cc(C(=O)Nc3cc4cc(-c5cnn(C)c5)ccc4cn3)ccn2)CC1,IC50,[1],> 10000 nM
same,IC50,[2],297 nM
same,IC50,[3],< 31.6 nM
same,IC50,[4],< 31.6 nM
same,IC50,[5],< 31.6 nM
same,IC50,[6],< 31.6 nM
same,"viability, T/C",[7],138%
same,"viability, T/C",[8],153%
same,"viability, T/C",[9],137%
same,"viability, T/C",[10],88.2%
same,"viability, T/C",[11],94.5%
same,"viability, T/C",[12],74.2%
same,"viability, T/C",[13],165%
same,"viability, T/C",[14],127%
same,"viability, T/C",[15],45.4%
same,"viability, T/C",[16],39.6%
same,"viability, T/C",[17],44.5%
same,"viability, T/C",[18],29.6%
same,"viability, T/C",[19],5.46%
same,"viability, T/C",[20],4.48%
same,"viability, T/C",[21],4.7%
same,"viability, T/C",[22],3.14%
same,"viability, T/C",[23],3.86%
same,"viability, T/C",[24],1.64%
same,"viability, T/C",[25],0.13%
same,"viability, T/C",[26],0.18%
same,"viability, T/C",[27],0.13%
same,"viability, T/C",[28],0.11%
same,"viability, T/C",[29],0.11%
same,"viability, T/C",[30],0.2%
same,"viability, T/C",[31],0.24%
same,"viability, T/C",[32],0.19%
same,"viability, T/C",[33],0.25%
same,"viability, T/C",[34],0.22%
same,"viability, T/C",[35],0.31%
same,"viability, T/C",[36],0.26%
same,"viability, T/C",[37],0.35%
same,"viability, T/C",[38],0.5%
same,"viability, T/C",[39],0.84%
same,"viability, T/C",[40],0.31%
same,"viability, T/C",[41],1.57%
same,"viability, T/C",[42],0.63%
C#Cc1c(F)ccc2cc(O)cc(-c3ncc4c(N5CC6CCC(C5)N6)nc(OCC56CCCN5CC(F)C6)nc4c3F)c12 (stereo not drawn) + CNC(=O)c1ccc(Nc2nc(OC3CCCC3)c3c(-c4ccc5nc(C)oc5c4)c[nH]c3n2)c(OC)c1,IC50,[1],> 10000 nM
same,IC50,[2],> 10000 nM
same,IC50,[3],> 10000 nM
same,IC50,[4],3640 nM
same,IC50,[5],< 31.6 nM
same,IC50,[6],< 31.6 nM
same,"viability, T/C",[7],82.3%
same,"viability, T/C",[8],77.8%
same,"viability, T/C",[9],79.1%
same,"viability, T/C",[10],73.4%
same,"viability, T/C",[11],77%
same,"viability, T/C",[12],66.8%
same,"viability, T/C",[13],88.6%
same,"viability, T/C",[14],92.6%
same,"viability, T/C",[15],79%
same,"viability, T/C",[16],91.7%
same,"viability, T/C",[17],103%
same,"viability, T/C",[18],79.2%
same,"viability, T/C",[19],64.9%
same,"viability, T/C",[20],75.3%
same,"viability, T/C",[21],66.6%
same,"viability, T/C",[22],91%
same,"viability, T/C",[23],77.4%
same,"viability, T/C",[24],56.4%
same,"viability, T/C",[25],44.4%
same,"viability, T/C",[26],56.8%
same,"viability, T/C",[27],47.4%
same,"viability, T/C",[28],53.8%
same,"viability, T/C",[29],55.8%
same,"viability, T/C",[30],38.1%
same,"viability, T/C",[31],43.2%
same,"viability, T/C",[32],35.4%
same,"viability, T/C",[33],40.4%
same,"viability, T/C",[34],46.7%
same,"viability, T/C",[35],44.4%
same,"viability, T/C",[36],29.5%
same,"viability, T/C",[37],36%
same,"viability, T/C",[38],24.8%
same,"viability, T/C",[39],30.9%
same,"viability, T/C",[40],32.2%
same,"viability, T/C",[41],31.7%
same,"viability, T/C",[42],24.4%
C=C(F)C(=O)N1CCN(c2nc(OCC3CCCN3C)nc3c2CCN(c2cccc4cccc(Cl)c24)C3)CC1CC#N (stereo not drawn),"viability, T/C",compound 0.0316 µM,97% and 92.3%
same,"viability, T/C",compound 0.1 µM,89.9% and 87.2%
same,"viability, T/C",compound 0.316 µM,87% and 84%
same,"viability, T/C",compound 1 µM,95.5% and 86.5%
same,"viability, T/C",compound 3.16 µM,144% and 135%
same,"viability, T/C",compound 10 µM,20% and 21.4%
same,IC50,curve of compound,6600 nM and 6470 nM
